Test results as given in patent publication US8399465B2, “Compounds with two fused bicyclic heteroaryl moieties as modulators of leukotriene A4 hydrolase” (Janssen Pharmaceutica NV, priority 2009, dated 2013).
Where a name gives a salt, the structure may show the parent alone. Read-outs that look alike come from different tables or passages of the source.

Columns and labels:
[1] = test system: LTB4 production in murine blood (LTA4H); assay: LTB4 production by calcium ionophore-stimulated murine blood for LTA4H inhibitor activity; format: cell-based, CD-1 mice; conditions: Mus musculus; murine blood diluted 1 in 15, A23187 stimulated; single determination or average; mark after value = form tested: ′ free base, ″ hydrochloride, ^ formate; read-out: IC50
Outline: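 Heparinized blood from CD-1 mice was preincubated with compound for 15 min at 37° C, then stimulated with calcium ionophore A23187 (final 7 μg/mL) for 30 min. Centrifugation stopped the reaction, and LTB4 in the supernatant was measured by enzyme immunoassay. Values are single determinations or means of two or more.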

[2] = biological target: T1, recombinant human LTA4 hydrolase (rhLTA4H) (Homo sapiens, UniProt P09960); assay: Recombinant human LTA4 hydrolase assay for LTA4 hydrolase inhibitor activity; format: biochemical; conditions: rhLTA4H, LTB4 by immunoassay; single determination or average of two or more; mark after value = form tested: ′ free base, ″ hydrochloride, ^ formate; read-out: IC50
T1 construct: made in house; host or cells: Spodoptera frugiperda (Sf-9) cells, baculovirus (pFastBac1)
T1 sequence (P09960 1-611): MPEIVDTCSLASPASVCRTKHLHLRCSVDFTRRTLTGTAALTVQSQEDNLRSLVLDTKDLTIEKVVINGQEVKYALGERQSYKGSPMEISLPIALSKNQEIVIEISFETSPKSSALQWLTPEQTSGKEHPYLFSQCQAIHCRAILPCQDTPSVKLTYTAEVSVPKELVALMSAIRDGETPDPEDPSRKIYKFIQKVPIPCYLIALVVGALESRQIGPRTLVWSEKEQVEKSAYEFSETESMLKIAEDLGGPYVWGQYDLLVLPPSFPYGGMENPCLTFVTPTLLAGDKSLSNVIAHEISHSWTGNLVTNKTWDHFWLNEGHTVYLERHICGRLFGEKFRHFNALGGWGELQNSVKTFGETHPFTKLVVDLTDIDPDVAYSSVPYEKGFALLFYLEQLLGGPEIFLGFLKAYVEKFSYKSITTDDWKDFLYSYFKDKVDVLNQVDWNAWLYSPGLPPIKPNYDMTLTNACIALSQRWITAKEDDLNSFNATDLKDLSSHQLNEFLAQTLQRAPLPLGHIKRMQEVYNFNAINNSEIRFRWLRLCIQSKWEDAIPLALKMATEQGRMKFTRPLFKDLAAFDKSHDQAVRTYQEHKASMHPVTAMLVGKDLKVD
Outline: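 Baculovirus/Sf-9-expressed human LTA4H (10 ng) was preincubated 10 min at rt with compound in assay buffer (10% DMSO in compound dilution), then reacted 30 min at rt with LTA4 free acid made from its methyl ester. LTB4 produced was measured by ELISA after dilution; IC50 from non-linear regression, single or averaged determinations.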

[3] = test system: arachidonic acid-induced neutrophil influx in murine ear tissue; assay: Murine arachidonic acid-induced inflammation model: neutrophil influx (myeloperoxidase) in ear; format: in vivo, Balb/c mice; conditions: Mus musculus, read-out: % Inh. MPO
Procedure: (§1) Assay 3: Murine Arachidonic Acid-Induced Inflammation Model
(§2) LTA4H inhibitor compounds of the present invention were dissolved in 20% cyclodextran/H2O at a concentration of 3 mg/mL. The solutions were administered by oral gavage to female Balb/c mice weighing approximately 20 grams each (0.2 mL per mouse, 30 mg of LTA4H inhibitor compound per kg). Sixty minutes after being administered an LTA4 inhibitor, each mouse received topical application of 20 μL of arachidonic acid (100 mg/mL in acetone) to the left ear and 20 μL of acetone only to the right ear. After 3 h, the mice were sacrificed, blood was withdrawn in heparinized syringes, and 8 mm ear biopsies were taken. Ear biopsies were weighed to determine edema and then frozen at −80° C. until needed for determination of neutrophil influx.
Neutrophil influx was quantified by measuring the activity of myeloperoxidase (MPO), a neutrophil-specific enzyme. […] Debris was removed by centrifugation at 14000×g for 10 min. […] The microtiter plate contents were held at room temperature until the sample with the highest concentration of MPO reached an absorbance value of 0.4 at 650 nm. The reaction was stopped by addition of 50 μL 1 M H2SO4 to each sample well, and the myeloperoxidase activity in each sample was determined from the absorbance at […]. The background value from the right ear, treated only with acetone, was subtracted from that for the left ear, treated with arachidonic acid in acetone, for each animal. The percent inhibition of neutrophil influx (% Inh. MPO) by compounds of the invention was determined by comparison to animals treated identically, except that the solution administered by oral gavage was devoid of inhibitor compound. All compounds were assayed in their free base form.

[4] = test system: ex vivo calcium ionophore-stimulated LTB4 production in whole blood; assay: Murine arachidonic acid-induced inflammation model: ex vivo stimulated LTB4 production in blood; parameters: species or system Balb/c mice; conditions: Mus musculus; 30 mg/kg oral gavage; blood diluted 1:1, A23187 stimulated ex vivo; percent inhibition of LTB4 production; read-out: % Inh. LTB4
Procedure: as §1, §2
The microtiter plate contents were incubated for 30 min at 37° C. in a humidified incubator. The reaction was terminated by centrifugation (833×g, 10 min at 4° C.). Supernatants were analyzed for LTB4 by a commercially available enzyme-linked immunoassay (Cayman Chemical Co.) in accordance with the manufacturer's instructions. The percent inhibition of ex vivo stimulated LTB4 production (% Inh. LTB4) was determined by comparison to animals treated identically except that the solution administered by oral gavage was devoid of inhibitor compound.

[5] = 30 mg/kg oral gavage, 60 min before topical arachidonic acid, ear biopsy after 3 h, percent inhibition of neutrophil influx

| Compound | IC50 [1] | IC50 [2] | inhibition at 30 mg/kg ([3]; Neutrophil) | inhibition at 30 mg/kg [4] | inhibition at 30 mg/kg [3, 5] |
| --- | --- | --- | --- | --- | --- |
| CC(=O)NC1CCN(Cc2coc3cc(Oc4nc5ncccc5s4)ccc23)C1 (centres unmarked) [Example 307, N-{1-[6-(Thiazolo[4,5-b]pyridin-2-yloxy)-benzofuran-3-ylmethyl]-pyrrolidin-3-yl}-acetamide formate] | 8 nM | 5 nM | 78% | 81% | – |
| CC(=O)N1C[C@H]2CC[C@@H](C1)N2Cc1cc2cc(Oc3nc4ncccc4s3)ccc2o1 [Example 93, meso-1-{8-[5-(Thiazolo[4,5-b]pyridin-2-yloxy)-benzofuran-2-ylmethyl]-3,8-diaza-bicyclo[3.2.1]oct-3-yl}-ethanone] | 23 nM | 3 nM | – | 85% | 87% |
| CC(=O)N1C[C@H]2C[C@@H]1CN2Cc1coc2cc(Oc3nc4ncccc4s3)ccc12 [Example 157, (1R,4R)-1-{5-[6-(Thiazolo[4,5-b]pyridin-2-yloxy)-benzofuran-3-ylmethyl]-2,5-diaza-bicyclo[2.2.1]hept-2-yl}-ethanone] | 16 nM | 8 nM | – | 97% | 93% |
| CC(=O)N1CCC(N(Cc2coc3cc(Oc4nc5ncccc5s4)ccc23)C2CC2)CC1 [Example 238, 1-(4-{Cyclopropyl-[6-(thiazolo[4,5-b]pyridin-2-yloxy)-benzofuran-3-ylmethyl]-amino}-piperidin-1-yl)-ethanone] | 44 nM | 5 nM | – | 93% | 77% |
| NC(=O)N[C@H]1C[C@H]2CC[C@@H](C1)N2Cc1cc2cc(Oc3nc4ncccc4s3)ccc2o1 [Example 103, meso-endo-N-{8-[5-(Thiazolo[4,5-b]pyridin-2-yloxy)-benzofuran-2-ylmethyl]-8-aza-bicyclo[3.2.1]oct-3-yl}-urea] | 132 nM | 4 nM | – | 0% | 18% |
| NC(=O)N1C[C@@H]2CC[C@H]1CN2Cc1coc2cc(Oc3nc4ncccc4s3)ccc12 [Example 241, (1S,4S)-5-[6-(Thiazolo[4,5-b]pyridin-2-yloxy)-benzofuran-3-ylmethyl]-2,5-diaza-bicyclo[2.2.2]octane-2-carboxylic acid amide formate] | 69 nM | 4 nM | 85% | 77% | – |
| CC(=O)N1CC2CN(Cc3c[nH]c4cc(Oc5nc6ccccc6s5)ccc34)CC2C1 (centres unmarked) [Example 54, 1-{5-[6-(Benzothiazol-2-yloxy)-1H-indol-3-ylmethyl]-hexahydro-pyrrolo[3,4-c]pyrrol-2-yl}-ethanone] | 165 nM | 4 nM | – | – | – |
| CCOC(=O)NC1CCN(Cc2c[nH]c3cc(Oc4nc5ccccc5s4)ccc23)CC1 [Example 29, {1-[6-(Benzothiazol-2-yloxy)-1H-indol-3-ylmethyl]-piperidin-4-yl}-carbamic acid ethyl ester] | 234 nM | 15 nM | – | – | – |

Further lines, with some results ahead:

| IC50 [1] | IC50 [2] | Compound | inhibition at 30 mg/kg ([3]; Neutrophil) | inhibition at 30 mg/kg [4] | inhibition at 30 mg/kg [3, 5] |
| --- | --- | --- | --- | --- | --- |
| 25 nM | 5 nM | NC(=O)C1CCN(Cc2coc3cc(Oc4nc5ncccc5s4)ccc23)CC1 [Example 213, 1-[6-(Thiazolo[4,5-b]pyridin-2-yloxy)-benzofuran-3-ylmethyl]-piperidine-4-carboxylic acid amide] | – | 80% | 92% |
| 200 nM | 5 nM | CN(CCC(=O)O)Cc1coc2cc(Oc3nc4ncccc4s3)ccc12 [Example 335, 3-{Methyl-[6-(thiazolo[4,5-b]pyridin-2-yloxy)-benzofuran-3-ylmethyl]-amino}-propionic acid formate] | – | – | – |
| 12 nM | 16 nM | c1cnc2nc(Oc3ccc4c(CNC5CCCCC5)coc4c3)sc2c1 [Example 299, Cyclohexyl-[6-(thiazolo[4,5-b]pyridin-2-yloxy)-benzofuran-3-ylmethyl]-amine] | – | – | – |
| 51 nM | 40 nM | c1ccc(CCNCc2coc3cc(Oc4nc5ncccc5s4)ccc23)cc1 [Example 321, Phenethyl-[6-(thiazolo[4,5-b]pyridin-2-yloxy)-benzofuran-3-ylmethyl]-amine formate] | – | – | – |
